Source: paper PMC7906020, “Trp-Containing Antibacterial Peptides Impair Quorum Sensing and Biofilm Development in Multidrug-Resistant Pseudomonas aeruginosa and Exhibit Synergistic Effects With Antibiotics” (Frontiers in Microbiology, 2021)
Where “and” joins values, the source holds several entries; their conditions need not be identical. Equal values may be shown once. Peptide text beside a SMILES is read from it.

Key:
[1] = cited from earlier work
Excerpt: Supplement Table_1.docx, table 1: Table S1 Biological characteristics and antibacterial activities of the Trp-containing antimicrobial peptides (32) | column: Hemolysis (μM)

[2] = tested on: OprD gene expression in MRPA0108; assay: Real-time qPCR of porin gene OprD; assay type: cell-based, Pseudomonas aeruginosa; details: peptide at its MIC (I1W 6.25 μM, L12W 25 μM); Supplementary Figure S2
Procedure: (§1) Mid-logarithmic (mid-log) growth-phase MRPA0108 cells (1 × 10^8 CFU/ml) were incubated with the different concentrations of peptide at 37°C for 18 h. The bacterial cells were collected by centrifugation at 13,000×g and digested in lysis buffer containing 10 mg/ml lysozyme. Total RNA was isolated by using a TRIzol® Max^TM Kit (Invitrogen, Shanghai, China) according to the manufacturer’s instructions and subsequently reverse transcribed into cDNA using a Prime Script RT Master Mix Kit (Takara, Dalian, China). Real-time PCR was performed in an ABI QuantStudio^TM 5 sequence detection system (Applied Biosystems, United States) using 2 × SYBR Premix Ex Taq II (Solarbio Science and Technology Co., Ltd.). The PCR cycling conditions were as follows: 95°C for 30 s and 40 cycles of 5 s at 95°C, 30 s at 60°C, and 20 s at 72°C. The fold changes calculated according to the comparative cycle threshold (Ct) method were used for quantifying gene expression, normalizing to the expression of the housekeeping gene rpsL. PCR primers, including those for lasA, lasB, rhlA, rhlB, pelA, algD, psl, oprD, oprM, mexA, and mexB, were synthesized by Sangon Biotech (Shanghai, China) and are presented in Supplementary Table S2.

[3] = tested on: LasB elastase of MRPA0108; assay: LasB elastase activity, elastin-Congo red method; assay type: cell-based, Pseudomonas aeruginosa; details: peptide at 1/4 × MIC, 24 h, 37°C; ECR substrate, OD495/OD600; vs control; triplicate
Procedure: The culture supernatant was obtained after centrifugation at 12,000×g for 10 min. (1) LasB elastase activity was measured using elastin-Congo red (ECR) as the substrate, as described by [Pattnaik et al. (2018)]. Briefly, 100 μl of the culture supernatant was added to 900 μl of ECR buffer (100 mM Tris-HCl, 1 mM CaCl2, pH 7.5) containing 10 mg of ECR and then incubated with shaking at 37°C for 18 h. Then, 100 μl of 0.12 M EDTA was added to stop the reaction. The insoluble ECR was removed by centrifugation, and the supernatant absorbance was measured at 495 nm. The optical density (OD) 495 nm/OD 600 nm represents the elastase activity. (2) LasA protease activity was measured as follows ([Pattnaik et al., 2018]): first, the culture supernatant was filtered to remove the bacterial cells, and then 150 μl of sterile-filtered supernatant was added to 2% azocasein (prepared in 50 mM Tris-HCl) and incubated for 4 h at 37°C. Trichloroacetic acid (TCA, 10%) was added to precipitate the undigested substrate. After centrifugation at 10,000 rpm for 10 min, 1 M NaOH was added to the supernatant, and the relative protease activity was measured at OD 440 nm. (3) The pyocyanin assay was based on the absorbance of excreted pyocyanin at 520 nm in an acidic solution ([Kong et al., 2005]). Three milliliters of culture supernatant were mixed with 2 ml of chloroform for 20 min, and then the pyocyanin from the chloroform phase was reextracted using 0.2 M HCl for 15 min to obtain a pink-colored pyocyanin solution. The OD 520 nm was measured to evaluate the change in pyocyanin content. (4) Rhamnolipid detection was carried out as previously described ([Wittgens et al., 2011]). Briefly, 500 μl of culture supernatant was mixed with 500 μl of ethyl acetate and vortexed vigorously for 15 s to extract rhamnolipid. After centrifugation at 10,000×g for 5 min at 4°C, the organic phase containing rhamnolipids was obtained and evaporated at room temperature overnight. […] The absorbance was measured at 420 nm. (5) The level of C4-HSL was quantified by GC-MS as previously described ([Guo et al., 2012]).

[4] = tested on: rhamnolipid production in MRPA0108; assay: Rhamnolipid production, orcinol method; assay type: cell-based, Pseudomonas aeruginosa; details: peptide at 1/4 × MIC, 24 h, absorbance 420 nm, vs control, triplicate
Procedure: The culture supernatant was obtained after centrifugation at 12,000×g for 10 min. (1) LasB elastase activity was measured using elastin-Congo red (ECR) as the substrate, as described by [Pattnaik et al. (2018)]. Briefly, 100 μl of the culture supernatant was added to 900 μl of ECR buffer (100 mM Tris-HCl, 1 mM CaCl2, pH 7.5) containing 10 mg of ECR and then incubated with shaking at 37°C for 18 h. Then, 100 μl of 0.12 M EDTA was added to stop the reaction. The insoluble ECR was removed by centrifugation, and the supernatant absorbance was measured at 495 nm. The optical density (OD) 495 nm/OD 600 nm represents the elastase activity. (2) LasA protease activity was measured as follows ([Pattnaik et al., 2018]): first, the culture supernatant was filtered to remove the bacterial cells, and then 150 μl of sterile-filtered supernatant was added to 2% azocasein (prepared in 50 mM Tris-HCl) and incubated for 4 h at 37°C. Trichloroacetic acid (TCA, 10%) was added to precipitate the undigested substrate. After centrifugation at 10,000 rpm for 10 min, 1 M NaOH was added to the supernatant, and the relative protease activity was measured at OD 440 nm. (3) The pyocyanin assay was based on the absorbance of excreted pyocyanin at 520 nm in an acidic solution ([Kong et al., 2005]). Three milliliters of culture supernatant were mixed with 2 ml of chloroform for 20 min, and then the pyocyanin from the chloroform phase was reextracted using 0.2 M HCl for 15 min to obtain a pink-colored pyocyanin solution. The OD 520 nm was measured to evaluate the change in pyocyanin content. (4) Rhamnolipid detection was carried out as previously described ([Wittgens et al., 2011]). Briefly, 500 μl of culture supernatant was mixed with 500 μl of ethyl acetate and vortexed vigorously for 15 s to extract rhamnolipid. After centrifugation at 10,000×g for 5 min at 4°C, the organic phase containing rhamnolipids was obtained and evaporated at room temperature overnight. The rhamnolipid extract dissolved in ultrapure water was mixed with orcinol reagent (0.19% orcinol in 53% H2SO4) and incubated at 80°C for 30 min. The absorbance was measured at 420 nm. (5) The level of C4-HSL was quantified by GC-MS as previously described ([Guo et al., 2012]).

[5] = tested on: OprM gene expression in MRPA0108; assay: Real-time qPCR of efflux pump gene OprM; assay type: cell-based, Pseudomonas aeruginosa; details: peptide at its MIC (I1W 6.25 μM, L12W 25 μM); Supplementary Figure S2
Procedure: as §1

[6] = tested on: alginate production in MRPA0108; assay: Alginate determination, H2SO4-carbazole method; assay type: cell-based, Pseudomonas aeruginosa; details: OD 530 nm
Procedure: (§2) Exopolysaccharides were determined using the phenol-H2SO4 method. Briefly, after incubation, the cultures were centrifuged at 10,000 rpm for 15 min, and the pellets were resuspended in high-salt buffer (10 mM KPO4, 5 mM NaCl, 2.5 mM MgSO4, pH 7.0), followed by recentrifugation at 10,000 rpm for 30 min. The resulting supernatant was mixed with three volumes of chilled ethanol (100%) and incubated overnight at 4°C. The precipitated exopolysaccharide was added to a mixture containing cold phenol and H2SO4, and the absorbance of the solution was measured at 490 nm. Alginate content was determined using the H2SO4-carbazole method. Briefly, after incubation, the precooled cultures were mixed with an H2SO4 solution (4:1) and vortexed in ice water, and then 0.2% carbazole dissolved in ethanol was added. The mixture was revortexed and incubated at 55°C for 30 min, and the OD 530 nm was measured.

MRPA0108 biofilms = assay: Confocal laser scanning microscopy of biofilms (LIVE/DEAD staining); assay type: cell-based, Pseudomonas aeruginosa; details: 24 h; for percentage of dead/live cells in biofilm: SYTO9/PI, control 8.7%
Procedure: Biofilms of MRPA0108 were visualized by confocal microscopy. Mid-log growth-phase bacteria were diluted to 1 × 10^7 CFU/ml. […] LB liquid medium and erythromycin were used as negative and positive controls, respectively. After incubation, the supernatant was removed, and the slides were washed and stained in a dark environment for 30 min using a LIVE/DEAD BacLight^TM Bacterial Viability Kit (Invitrogen, Life Technologies, Shanghai, China). The slides were washed three times and imaged with a confocal laser scanning microscope (LSM 710, Carl Zeiss, Germany) with excitation/emission wavelengths of 480/500 and 490/635 nm for SYTO9 and propidium iodide (PI), respectively. SYTO9 was used to indicate live bacteria, and PI was used to mark dead bacteria.

[7] = tested on: exopolysaccharide production in MRPA0108; assay: Exopolysaccharide determination, phenol-H2SO4 method; assay type: cell-based, Pseudomonas aeruginosa; details: phenol-H2SO4, 490 nm
Procedure: as §2

CC[C@H](C)[C@H](NC(=O)[C@H](CCCCN)NC(=O)[C@H](CO)NC(=O)[C@H](CC(C)C)NC(=O)[C@@H](NC(=O)[C@H](CCCCN)NC(=O)[C@H](CCCCN)NC(=O)[C@@H](N)Cc1c[nH]c2ccccc12)[C@@H](C)CC)C(=O)N[C@@H](CCCCN)C(=O)N[C@@H](CCCCN)C(=O)N[C@@H](CC(C)C)C(=O)N[C@@H](CC(C)C)C(=O)N[C@@H](CCCCN)C(N)=O [I1W] (H-WKKILSKIKKLLK-NH2; N-terminus and C-terminus assumed)
Hemolysis [1]: > 500 µM
reduction of OprD gene expression [2]: 27%
decrease of LasB elastase activity [3]: 21.0%
inhibition of rhamnolipid production [4]: 45.2%
reduction of OprM gene expression [5]: 22.3%
inhibition of alginate production ([6]; peptide at 1/4 × MIC): 53%
inhibition of alginate production ([6]; peptide at 1 × MIC): 74%
average biofilm thickness (MRPA0108 biofilms; after treatment with low concentrations of peptide (1 × MIC or 2 × MIC), 37°C, control biofilm 6 μm): 1.5–2.5 μm and 1.5 μm
percentage of dead/live cells in biofilm (MRPA0108 biofilms; peptide at 1 × MIC): 29.9%
percentage of dead/live cells in biofilm (MRPA0108 biofilms; peptide at 2 × MIC): 47.9%
reduction of exopolysaccharide production ([7]; peptide at 1/4 × MIC, overnight 37°C): 26.3%
reduction of exopolysaccharide production ([7]; peptide at 1 × MIC): 67.3%
reduction of exopolysaccharide production ([7]; peptide concentration increased onefold from 1/4 × MIC): 42.6%
